Measured values published in publication PMC12508576, “Implementing a trilineage differentiation in the ReproTracker assay for improved teratogenicity assessment” (Frontiers in Toxicology, 2025).
Read-outs that look alike come from different tables or passages of the source.

Columns and labels:
[1] = tested on: hiPSCs differentiating into hepatocyte-like cells; assay: ReproTracker hepatocyte differentiation assay
Protocol: (§1) Prior to differentiation, the cells were harvested and dissociated into single cells using Gibco™ TrypLE™ Select (ThermoFisher Scientific; Bleiswijk, Netherlands) for 5 min at 37 °C. Cells were seeded in Matrigel™-coated 24-well plates (ThermoFisher Scientific) in mTeSR™1 containing RevitaCell™ Supplement (ThermoFisher Scientific). […] The cells were cultured in this medium until D3. From D3 until the end of the differentiation protocol (D13) (one-step protocol), cells were cultured in N2B27 medium without ROCK inhibitor or LDN193189. In the case of the replating protocol, cells were replated at D7 and grown in the same medium until day 13. At the end of the differentiation, morphology of the cells was assessed using an Operetta CLS (Revvity) instrument. The expected morphology for each of the lineages, to ensure data acceptance and correct differentiations, is further described in Section 2.9 of the methods section. The trilineage differentiation was replicated in 96-well plates (ThermoFisher Scientific and Revvity Phenoplate) using the same differentiation protocols with an adapted number of cells for the seeding. And termination at D14.
(§2) Cells were harvested, and total RNA was isolated using the Maxwell® RSC simply RNA Cells Kit (cat. no.: #AS1390; Promega) on a Maxwell automated purification instrument (Maxwell RSC 48; Promega). […] Each individual primer was paired with its corresponding fluorophore and quencher and adjusted accordingly depending on gene abundance. Primer and probe sequences are described in Supplementary Table S1.
(§3) Data acceptance was based on the appropriate expression of the assessed biomarker genes in the differentiated populations, at appropriate times during differentiation. Failure to observe the expected temporal expression of key, lineage-specific biomarkers, during the cell fate choices associated with each differentiation protocol, would result in the experiment being invalidated.
(§4) To follow morphological changes throughout the hepatocyte and neural differentiation protocol, brightfield images of the cells were acquired after each medium refresh using an iRiS digital cell imaging microscope (Logos Biosystems) or an Operetta CLS (Revvity) instrument. Images were scored based on visual assessment. Cardiac contractability of cardiomyocytes was evaluated visually using an iRiS digital cell imaging microscope (Logos Biosystems).
(§5) Morphologically, cardiomyocytes are expected to group in fiber-like 3D structures that distribute throughout the entire plate. Aside from morphology, an additional criterion for cardiomyocyte differentiation in each experimental setup is for the contracting mature cardiomyocyte cultures exposed to solvent controls, to reach 75%. […] Neural rosettes are recognized by well-defined cell boundaries and multi-layered cultures. Functional/morphological assessment was completed independently from biomarker data analyses. Morphology scores were confirmed by a second person. Failure to observe the anticipated cell morphology/functionality throughout differentiation would result in invalidation of the experiment. Disruption in the morphology of cardiomyocytes is described as a lack of 3D-fibre-like structures in the cultures as well as a clear lack of contractions. Morphologically aberrant hepatocytes are characterized by a lack of polygonal structures with smaller cytoplasm that in the control cultures and the formation of dark cell-dense structures, commonly indicative of clumps of dead cells with big empty spaces between cell colonies.

[2] = tested on: hiPSCs differentiating into neural rosette-like cells; assay: Neural rosette differentiation, replating protocol, PAX6/NESTIN immunostaining; assay type: cell-based, human; conditions: for PAX6 protein levels: D13, non-cytotoxic concentrations; for NESTIN protein levels: D13, tacrolimus: highest tested concentration; for NESTIN localization: D13
Protocol: as §1
For neural rosette-like cells’ imaging, cells were washed with PBS and subsequently, cells were fixed using 4% paraformaldehyde in PBS. Permeabilization was performed using 0.1% Triton-X in PBS for 10 min at room temperature. Cells were blocked using 10% donkey serum diluted in PBS +0.1% Tween20 for 10 more minutes. Incubation with primary antibody overnight at 4 °C was performed to stain the cells. The cells were washed 3 times with PBS +0.1% Tween20 and incubated with a secondary antibody in PBS for 1 h at room temperature. Cellular nuclei were stained using Hoechst H33342 (CAS# […], Sigma Aldrich in a 1:5000 dilution). Imaging was done using an Operetta CLS (Revvity) instrument. Primary and secondary antibodies’ concentrations are described in Supplementary Table S2.
To quantify PAX6-and NESTIN-positive cells, Hoechst-stained nuclei were selected based on their fluorescent signal above the background. Cells were also excluded if touching the edge of the fields of view. Also, size exclusion was applied to avoid clustered nuclei being counted as single objects. Fluorescence measurements of PAX6 were performed within the defined nuclei and intracellularly for NESTIN. Then, a minimal fluorescence threshold was defined, resulting in the selection of PAX6-positive cells and NESTIN-positive cells. Finally, the percentages of PAX6-and NESTIN-positive cells were calculated using Revvity Harmony™ Software.
The compounds were tested in both the replating and the one-step protocols. Due to the nature of the protocols, teratogenicity prediction of the compounds was performed based on quantification of PAX6 and NESTIN-positive cells at D13 in the replating protocol or on a significant reduction in the biomarker gene expression at D7 and D13, as well as qualitative morphological analysis at D13 in the one-step protocol.

[3] = tested on: hiPSCs differentiating into neural rosette-like cells
Protocol: as §1, §2, §3, §4, §5

undifferentiated hiPSCs [4] = tested on: undifferentiated hiPSCs; set-up: method as in Jamalpoor et al., 2022; conditions: lowest concentration that induced a maximum of 20% cytotoxicity in hiPSCs; dose-range finding previously published; ref Jamalpoor et al., 2022; cited from earlier work
[5] = tested on: hiPSCs differentiating into cardiomyocyte-like cells; assay: ReproTracker cardiomyocyte differentiation assay
Protocol: as §1, §2, §3, §4, §5

[6] = tested on: hiPSCs trilineage differentiation (cardiomyocytes, hepatocytes, neural rosette-like cells); assay: ReproTracker trilineage differentiation, overall teratogenicity prediction; conditions: for ReproTracker results LOAEL: lowest tested concentration with significant decrease of at least one biomarker, trilineage assay, 'N.d. up to x' given as > x; for LOAEL compared with respective human therapeutic Cmax: Figure 4
Excerpt: (§6) In ReproTracker, teratogenicity prediction of test compounds is based on a Weight of Evidence (WoE) approach, which considers both the significant decrease in biomarker expression and the morphological/functional changes following exposure to test compounds throughout differentiation assays.
(§7) This threshold, for any given biomarker, is defined as the average minus one time the standard deviation (SD) of the biomarker expression levels in solvent-exposed control cultures throughout the experiment. Reduced expression of the selected biomarkers below the set threshold in a concentration-dependent manner, upon exposure to a minimum of 2 consecutive non-cytotoxic concentrations would be considered significant (noted as +). A decrease in expression below the threshold without a clear dose-response would lead to an equivocal classification (noted as (+)). An increase in expression or a lack of response would be considered negative (noted as -). Disruption of morphology/functionality of the cultures upon compound exposure at the two highest tested concentrations in all biological replicates is considered as a morphological disruption (noted as +). Absence of significant effects results in a negative score (noted as -).
(§8) For each differentiation assay, the expression of two biomarkers and a morphological/functional read-out are considered. In the hepatocyte and cardiomyocyte differentiation, FOXA2 and BMP4 are considered germ-layer-specific biomarkers, while AFP and MYH6 are considered cell-specific biomarkers, respectively. When applying the WoE approach, the cell-specific biomarkers in hepatocyte and cardiomyocyte differentiation are given higher weight compared to the germ-layer specific biomarkers and morphology/functionality. For the neural differentiation, both PAX6 and NESTIN are given equal weight as they are considered cell-specific markers. In this case, both biomarkers are given higher weight than the morphological read-out.
(§9) Every measurement/observation is assigned a score (positive, negative, or equivocal). […] In the ReproTracker assay, a compound is identified as a teratogen if it receives a positive score in at least one of the trilineage differentiation assays (cardiomyocyte, hepatocyte, or neural differentiation). […] If neither biomarker expression levels nor morphology/functionality are affected in any of the differentiation assays, the response is considered negative.

[7] = tested on: hiPSCs trilineage differentiation (cardiomyocytes, hepatocytes, neural rosette-like cells); conditions: based on effects on cardiomyocytes and/or hepatocytes only; ref Jamalpoor et al., 2022; cited from earlier work
[8] = tested on: hiPSCs differentiating into hepatocyte-like cells; conditions: lineage call; footnote b: previously published data; ref Jamalpoor et al., 2022; cited from earlier work
[9] = read-out: Human therapeutic cmax, Table 1 (R3 I (2021), Schulz et al. (2020) and others); cited from earlier work
human = conditions: Table 1 (R3 I (2021), Schulz et al. (2020) and others); cited from earlier work
[10] = tested on: hiPSCs trilineage differentiation (cardiomyocytes, hepatocytes, neural rosette-like cells); conditions: human
Excerpt: as §6, §7, §8, §9

[11] = tested on: hiPSCs differentiating into cardiomyocyte-like cells; conditions: lineage call; footnote b: previously published data; ref Jamalpoor et al., 2022; cited from earlier work
undifferentiated hiPSCs [12] = assay: Concentration-range selection and cytotoxicity assessment (AlamarBlue); conditions: lowest concentration that induced a maximum of 20% cytotoxicity in hiPSCs, 7 days
Protocol: In short, hiPSCs were exposed to 20 consecutive concentrations of the test compounds using 1 mM or the maximum soluble concentration as the top concentration. Test compounds were added to the medium prior to the refreshes at D0 and D3. Cytotoxicity was estimated at D7; upon completion of the experiments, cells were incubated with resazurin solution (0.01 mg/mL in PBS) and measured absorbance (excitation 530 nm and emission 590 nm). Results were normalized against vehicle controls (0.1% v/v DMSO).
All compounds were tested at five consecutive concentrations in two-fold dilution steps. The top concentration was determined as the lowest concentration that induced a maximum of 20% cytotoxicity in the concentration range finding experiments. Compounds were then diluted 2-fold using serial dilutions.
Data acceptance for dose-range finding experiments was based on the response to positive and negative assay controls, and compound solubility and cytotoxicity. […] Concentrations of compound(s) inducing cytotoxicity and therefore reducing cell survival below 80% were excluded from further testing in differentiation assays.
Thus, to determine cytotoxicity of the test compounds, undifferentiated hiPSCs were exposed to 20 consecutive concentrations at 2-fold dilutions for 7 days. The lowest concentration that induced a maximum of 20% cytotoxicity in the concentration range finding experiment was applied as top concentration for the differentiation experiments.

[13] = lineage call (positive/equivocal/negative)

SMILES	ReproTracker results Hepatocyte-like cells [1]	PAX6 protein levels [2]	NESTIN protein levels [2]	NESTIN gene expression at D13 [3]	PAX6 gene expression at D7 [3]	ReproTracker results Neural rosette-like cells [3]	morphology of neural rosette-like cells [3]	top concentration for the differentiation experiments (undifferentiated hiPSCs [4]) [µM]	ReproTracker results Cardiomyocyte-like cells [5]	ReproTracker results LOAEL [6]	Cmax [9] [nM]	further results
O=C1NS(=O)(=O)c2ccccc21 [Saccharin]	Negative	no effect	no effect	no effect	no effect	Negative	no effect	250	Negative	N.d. up to 250 µM	–	–
COc1ccc([C@@H]2Sc3ccccc3N(CCN(C)C)C(=O)[C@@H]2OC(C)=O)cc1 [Diltiazem]	–	–	–	–	–	Positive	–	–	–	≤7.8 µM	60 to 300	LOAEL before inclusion of the neural differentiation readout [7]: 31 µM; ReproTracker results Hepatocyte-like cells [8]: Positive; LOAEL compared with respective human therapeutic Cmax [6]: higher; ReproTracker results LOAEL ([6]; listed as diltiazem): ≤ 7.8 µM
CO [Methanol]	Negative	–	–	–	–	Negative	–	–	Negative	N.d. up to 1000 µM	98700	In vivo classification H (human): NT (presumed)
C=CC[C@@H]1/C=C(\C)C[C@H](C)C[C@H](OC)[C@H]2O[C@@](O)(C(=O)C(=O)N3CCCC[C@H]3C(=O)O[C@H](/C(C)=C/[C@@H]3CC[C@@H](O)[C@H](OC)C3)[C@H](C)[C@@H](O)CC1=O)[C@H](C)C[C@@H]2OC [Tacrolimus]	Positive	concentration-dependent decrease	increased	downregulated	downregulation	Positive	disrupted	7.81	Equivocal	–	0.6 to 30	NESTIN localization [2]: affecting; NGN2 gene expression [3]: no significant effect; OTX2 gene expression [3]: no significant effect; PAX6 gene expression at D13 [3]: increasing; SOX1 gene expression [3]: no significant effect; LOAEL compared with respective human therapeutic Cmax [10]: higher; ReproTracker results LOAEL [10]: ≤0.2 µM
Nc1cccc2c1C(=O)N(C1CCC(=O)NC1=O)C2=O (stereo not shown) [Pomalidomide]	–	–	–	–	–	–	–	–	–	≤12.5 µM	300 to 400	ReproTracker results Hepatocyte-like cells [1, 13]: Positive; ReproTracker results Neural rosette-like cells [3, 13]: Positive; In vivo classification H (human): T (presumed); ReproTracker results Cardiomyocyte-like cells [5, 13]: Positive; LOAEL compared with respective human therapeutic Cmax [6]: higher
[CH3][Hg][Cl] [Methylmercury]	–	–	–	–	–	–	–	0.3	–	N.d. up to 0.31 µM	1 to 30	ReproTracker results Neural rosette-like cells [3, 13]: Negative; ReproTracker results Cardiomyocyte-like cells [11]: Negative; ReproTracker results Hepatocyte-like cells [8]: Negative
CC1=C(/C=C/C(C)=C/C=C/C(C)=C/C(=O)O)C(C)(C)CCC1 [Tretinoin (Retinoic acid)]	Positive	significantly decreased	increasing	downregulated	downregulation	Positive	disrupted	–	Positive	–	1300	effect at the highest tested concentration in the replating protocol ([2]; 5 µM): complete cell death; NESTIN localization [2]: disrupted; NESTIN gene expression at D7 [3]: increased; OTX2 gene expression [3]: downregulation; PAX6 gene expression at D13 [3]: downregulation; LOAEL compared with respective human therapeutic Cmax [10]: equal to or below; ReproTracker results LOAEL [10]: ≤0.3 µM; top concentration for the differentiation experiments (undifferentiated hiPSCs [12]): 5 µM
